Measurements: patent US6670362B2, “Pyridazine endothelin antagonists” (Pfizer Inc., priority 2000, dated 2003)
One block for each compound: values may come before it.

How the values were obtained:
[1] = system: neointimal formation; conditions: S. Douglas et al., Circ. Res., 1994; cited from earlier work
[2] = system: ETA/B receptor; conditions: hypertensive patients; H. Krum et al., 1998; cited from earlier work
[3] = target: T1, dog ETB (Canis lupus familiaris, UniProt P56497); test: Dog ETB Binding Assay (125I-IRL-1620, dog cerebellum homogenate)
T1 construct: 50 μg of purified Dog cerebellum homogenate is added; from tissue; host or cells: dog cerebellum homogenate
T1 sequence (P56497 27-442): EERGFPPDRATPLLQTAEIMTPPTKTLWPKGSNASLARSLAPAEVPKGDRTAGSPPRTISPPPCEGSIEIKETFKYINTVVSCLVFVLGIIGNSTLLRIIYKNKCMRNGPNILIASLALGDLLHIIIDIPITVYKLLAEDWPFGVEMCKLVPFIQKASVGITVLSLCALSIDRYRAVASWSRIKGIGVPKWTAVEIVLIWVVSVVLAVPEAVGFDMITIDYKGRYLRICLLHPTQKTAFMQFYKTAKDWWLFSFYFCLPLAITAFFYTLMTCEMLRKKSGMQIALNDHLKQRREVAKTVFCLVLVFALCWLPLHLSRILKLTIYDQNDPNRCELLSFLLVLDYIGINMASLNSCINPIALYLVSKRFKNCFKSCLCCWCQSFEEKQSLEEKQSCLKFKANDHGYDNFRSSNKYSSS
Method: (§1) Competition between test substances and ligands binding to canine endothelin receptors is determined as follows: […] The solution is incubated at 30° C. for 90 minutes. After the incubation, the unbound ligand is separated from receptor bound ligand by filtration with a Brandel cell harvester, followed by 5 washes with buffer (Tris 50 mM, MgCl2 10 mM). Filter papers are counted for radioactivity and the Ki (an IC50 corrected for the dissociation constant and concentration of the ligand added) is determined for the concentration range tested.

[4] = target: T2, dog ETA receptor (Canis lupus familiaris, UniProt Q5KSU9); test: Dog ETA Binding Assay (125I-PD-151242, dog kidney homogenate)
T2 construct: 100 μg of purified dog kidney homogenate is added; from tissue; host or cells: dog kidney homogenate
T2 sequence (Q5KSU9 21-426): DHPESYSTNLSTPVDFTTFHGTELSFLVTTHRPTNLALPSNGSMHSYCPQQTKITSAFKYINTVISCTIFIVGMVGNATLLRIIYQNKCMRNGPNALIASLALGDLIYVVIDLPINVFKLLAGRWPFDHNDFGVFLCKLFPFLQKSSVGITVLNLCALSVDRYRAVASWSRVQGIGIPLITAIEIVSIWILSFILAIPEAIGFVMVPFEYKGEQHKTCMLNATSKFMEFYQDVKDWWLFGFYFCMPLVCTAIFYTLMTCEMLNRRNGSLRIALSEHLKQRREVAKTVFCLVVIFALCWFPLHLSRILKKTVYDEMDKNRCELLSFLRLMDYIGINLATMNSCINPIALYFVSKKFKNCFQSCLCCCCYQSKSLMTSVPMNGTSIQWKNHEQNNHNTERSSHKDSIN
Method: as §1, with “room temperature” for “30° C.”, “2 hours.” for “90 minutes.”

[5] = target: T3, ETB receptors (Homo sapiens, UniProt P24530); conditions: in man; Hypertension, 1999, 33, 581-585; cited from earlier work
T3 construct: host or cells: man (in vivo)
T3 sequence (P24530 27-442): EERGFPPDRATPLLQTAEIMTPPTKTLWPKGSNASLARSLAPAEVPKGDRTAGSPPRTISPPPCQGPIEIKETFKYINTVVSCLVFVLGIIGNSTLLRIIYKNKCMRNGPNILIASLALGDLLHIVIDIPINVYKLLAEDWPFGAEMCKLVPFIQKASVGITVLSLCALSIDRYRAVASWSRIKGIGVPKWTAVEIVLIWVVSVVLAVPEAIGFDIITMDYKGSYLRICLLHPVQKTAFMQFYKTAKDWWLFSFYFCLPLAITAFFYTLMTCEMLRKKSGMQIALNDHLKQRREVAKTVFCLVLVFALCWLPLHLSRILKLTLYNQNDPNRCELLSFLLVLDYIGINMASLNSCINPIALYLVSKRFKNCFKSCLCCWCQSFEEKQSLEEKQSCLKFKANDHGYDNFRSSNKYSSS

Compound: CCCOc1ccc2c(c1)[C@@H](c1ccc(OC)cc1OCC(=O)O)[C@H](C(=O)O)[C@H]2c1ccc2c(c1)OCO2 [SB-209670]
reduction in neointimal formation relative to control animals [1]: 50%

Compound: COc1ccccc1Oc1c(NS(=O)(=O)c2ccc(C(C)(C)C)cc2)nc(-c2ncccn2)nc1OCCO [Bosentan]
blood pressure [2]: decreased blood pressure

Ki [3]: 132 nM
Ki [4]: 2 nM
Compound: COc1ccccc1Oc1c(NS(=O)(=O)CCc2ccccc2)nc(-c2cccnn2)nc1OC [Example 5]

Compound: CCCC[C@@H](NC(=O)[C@@H](Cc1cn(C(=O)OC)c2ccccc12)NC(=O)[C@H](CC(C)(C)C)NC(=O)N1[C@H](C)CCC[C@@H]1C)C(=O)O [BQ-788]
peripheral resistance [5]: increase peripheral resistance
